Like-named read-outs stand apart in the source and are kept apart here.
What was measured:
[1] = Single dose oral gavage or intravenous PK in female cynomolgus monkeys, plasma; format: in vivo; settings: for clearance / Vd / AUC(0-inf) / AUC(0-t) / Cmax / Tmax / half-life: female, cynomolgus monkey, plasma; for clearance: read-out: cleared (Cl), mean rate (converted); for Vd: read-out: mean volume of distribution (Vz)
Procedure: The objective of the study was to determine the PK profile of Compound 1 following a single oral gavage or intravenous injection administration on 5 different occasions to female cynomolgus monkeys.
Compound 1, was administered as consecutive single doses on 5 occasions, separated by a washout period, by either oral gavage (4 and 12 mg/kg, Days 1 and 8) or by slow bolus intravenous (IV) injection (0.2 and 0.6 mg/kg, Days 15 and 22) to a group of female monkeys. In a subset of dosing the influence of grapefruit juice was evaluated (Day 34). Each single dose (Days 1, 8, 15, 22, and 34) was separated by a 7-day washout period. Blood samples were collected on Days 1, 8, 15, 22 and 34 at selected time points, i.e., 15 min, 30 min, as well as 1, 2, 4, 6, 8, and 24 hours relative to treatment for analysis of the concentration of Compound 1 in plasma and subsequent calculation of PK parameters. Additional parameters monitored included mortality, clinical observations and body weight.

[2] = 5-day daily oral repeated-dose pilot study in cynomolgus monkeys (mesylate salt); format: in vivo; settings: for Tmax: all groups
Procedure: The objective of the study was to determine the TK profile of Compound 1 following its daily administration through oral gavage (po) for 5 days to cynomolgus monkeys.
Naïve male and female cynomolgus monkeys (2 animals/sex/group) were orally administered Compound 1 (mesylate salt) at dose levels of 8, 12 or 16 mg/kg/day for 5 consecutive days. The vehicle was 0.5% (w/v) methyl cellulose 400 in sterile water. For TK evaluation blood samples were collected from each animal on Days 1 and 5 at pre-dose, 15 min, 30 min, as well as 1, 2, 4, 6, 8, 12, and 24 hours post-dose.

[3] = system: PC3; test: Caspase 3/7 activation (apoptosis); format: cell-based; design: key: “+” (present); “−” (absent); settings: Rb wt, p53 x
From the text: (§1) It was noted that cancer cell lines that were growth inhibited at lower concentrations of Compound 1 more frequently responded to Compound 1 exposure with an apoptotic reaction (FIG. 2). Since PC cell lines were among the cancer cell types displaying a particularly high sensitivity to Compound 1 treatment (FIG. 1), the potentially underlying biological reasons for an apoptotic response were investigated in a set of PC cell lines consisting of DU-145, LNCaP, 22Rv1 and PC3 cells.
(§2) In table 1, “wt”=wild-type; “x”=cells harboring Rb and p53 deficiencies; “+” (present) or “−” (absent) indicate the arrest (i.e. accumulation) of cells in S-phase triggered by Compound 1, which coincided with accumulation of the DNA damage marker phosphorylated gamma H2AX (γH2AX; see FIG. 3A). These events are followed by activation of caspases 3 and 7 as indicators of cell apoptosis as indicated by “+” (present) or “−” (absent). In cancer cells with intact Rb and/or p53 functions (wt=wild-type), Compound 1 induced growth arrest but not a substantial increase of cells in S-phase (=S-phase arrest). Upon release of treatment, such cells are able to proliferate again.

[4] = system: BT-549; test: Caspase 3/7 activation (apoptosis); format: cell-based; design: key: “+” (present); “−” (absent); settings: Rb x, p53 x
From the text: as §1, §2

[5] = system: SCLC-21H; test: Caspase 3/7 activation (apoptosis); format: cell-based; design: key: “+” (present); “−” (absent); settings: Rb x, p53 x
From the text: as §1, §2

[6] = system: NCI-H209; test: Caspase 3/7 activation (apoptosis); format: cell-based; design: key: “+” (present); “−” (absent); settings: Rb x, p53 x
From the text: as §1, §2

[7] = system: DU-145; test: Caspase 3/7 activation (apoptosis); format: cell-based; design: key: “+” (present); “−” (absent); settings: Rb x, p53 x
From the text: as §1, §2

[8] = system: Hut-78; test: Caspase 3/7 activation (apoptosis); format: cell-based; design: key: “+” (present); “−” (absent); settings: Rb x, p53 x
From the text: as §1, §2

[9] = system: NCI-H69; test: Caspase 3/7 activation (apoptosis); format: cell-based; design: key: “+” (present); “−” (absent); settings: Rb x, p53 x
From the text: as §1, §2

[10] = system: NCI-H660; test: Caspase 3/7 activation (apoptosis); format: cell-based; design: key: “+” (present); “−” (absent); settings: Rb x, p53 x
From the text: as §1, §2

[11] = system: LNCaP; test: Caspase 3/7 activation (apoptosis); format: cell-based; design: key: “+” (present); “−” (absent); settings: Rb wt, p53 wt
From the text: as §1, §2

[12] = system: NCI-H146; test: Caspase 3/7 activation (apoptosis); format: cell-based; design: key: “+” (present); “−” (absent); settings: Rb x, p53 x
From the text: as §1, §2

[13] = system: NCI-H82; test: Caspase 3/7 activation (apoptosis); format: cell-based; design: key: “+” (present); “−” (absent); settings: Rb x, p53 x
From the text: as §1, §2

[14] = system: 22Rv1; test: Caspase 3/7 activation (apoptosis); format: cell-based; design: key: “+” (present); “−” (absent); settings: Rb wt, p53 wt
From the text: as §1, §2

[15] = system: Y-79; test: Caspase 3/7 activation (apoptosis); format: cell-based; design: key: “+” (present); “−” (absent); settings: Rb x, p53 wt
From the text: as §1, §2

SMILES: CC(C)C[C@@H]1NCCN([C@@H](CC(C)C)C(=O)N2CCC3(C[C@@H]2C)OCC(CN2CCCC2)CO3)C1=O (stereo partly drawn) [Compound 1, (S)-3-isobutyl-1-((S)-4-methyl-1-((S)-8-methyl-3-(pyrrolidin-1-ylmethyl)-1,5-dioxa-9-azaspiro[5.5]undecan-9-yl)-1-oxopentan-2-yl)piperazin-2-one]
- clearance ([1]; Day 15 (IV 0.2 mg/kg)): 43.2 mL/min/kg
- Vd ([1]; Day 15 (IV 0.2 mg/kg)): 17.4 ± 2.2 L/kg
- clearance ([1]; Day 22 (IV 0.6 mg/kg)): 41 mL/min/kg
- Vd ([1]; Day 22 (IV 0.6 mg/kg)): 16.9 ± 1.91 L/kg
- AUC(0-inf) ([1]; IV 0.2 mg/kg): 77.4 ng·h/mL
- AUC(0-t) ([1]; IV 0.2 mg/kg): 76.2 ng·h/mL
- Cmax ([1]; IV 0.2 mg/kg): 47.6 ng/mL
- Tmax ([1]; IV 0.2 mg/kg): 0.08 h
- half-life ([1]; IV 0.2 mg/kg): 4.64 h
- AUC(0-inf) ([1]; IV 0.6 mg/kg): 244 ng·h/mL
- AUC(0-t) ([1]; IV 0.6 mg/kg): 240 ng·h/mL
- Cmax ([1]; IV 0.6 mg/kg): 162 ng/mL
- Tmax ([1]; IV 0.6 mg/kg): 0.08 h
- half-life ([1]; IV 0.6 mg/kg): 4.74 h
- AUC(0-inf) ([1]; po 4 mg/kg): 17.3 ng·h/mL
- AUC(0-t) ([1]; po 4 mg/kg): 16.9 ng·h/mL
- Cmax ([1]; po 4 mg/kg): 5.52 ng/mL
- Tmax ([1]; po 4 mg/kg): 0.5 h
- half-life ([1]; po 4 mg/kg): 4.7 h
- AUC(0-inf) ([1]; po 12 mg/kg): 133 ng·h/mL
- AUC(0-t) ([1]; po 12 mg/kg): 130 ng·h/mL
- Cmax ([1]; po 12 mg/kg): 53.6 ng/mL
- Tmax ([1]; po 12 mg/kg): 0.83 h
- half-life ([1]; po 12 mg/kg): 5.46 h
- clinical signs ([1]; intravenous doses up to 0.6 mg/kg): decrease in appetite
- clinical signs ([1]; single oral doses up to 12 mg/kg): did not result in any adverse clinical signs
- Cmax increase with grapefruit juice prior to dosing ([1]; vs animals without grapefruit juice, Day 34): 2 fold
- Total AUC ([2]; 8 mg/kg/day, Day 1): 85 ng·h/mL
- Total AUC ([2]; 8 mg/kg/day, Day 5): 175 ng·h/mL
- Total AUC ([2]; 12 mg/kg/day, Day 1): 106 ng·h/mL
- Total AUC ([2]; 12 mg/kg/day, Day 5): 329 ng·h/mL
- Total AUC ([2]; 16 mg/kg/day, Day 1): 351 ng·h/mL
- Total AUC ([2]; 16 mg/kg/day, Day 5): 561 ng·h/mL
- Cmax ([2]; both sexes, cynomolgus monkey, serum, po, 8 mg/kg/day, Day 1, read-out: Peak serum levels (Cmax)): 45 ng/mL
- Cmax ([2]; both sexes, cynomolgus monkey, serum, po, 8 mg/kg/day, Day 5, read-out: Cmax): 64 ng/mL
- Cmax ([2]; both sexes, cynomolgus monkey, serum, po, 12 mg/kg/day, Day 1, read-out: Peak serum levels (Cmax)): 42 ng/mL
- Cmax ([2]; both sexes, cynomolgus monkey, serum, po, 12 mg/kg/day, Day 5, read-out: Cmax): 72 ng/mL
- Cmax ([2]; both sexes, cynomolgus monkey, serum, po, 16 mg/kg/day, Day 1, read-out: Peak serum levels (Cmax)): 136 ng/mL
- Cmax ([2]; both sexes, cynomolgus monkey, serum, po, 16 mg/kg/day, Day 5, read-out: Cmax): 112 ng/mL
- Tmax ([2]; both sexes, cynomolgus monkey, serum, po, Day 1): 0.5 to 0.9 h
- Tmax ([2]; both sexes, cynomolgus monkey, serum, po, Day 5): 0.5 to 1.75 h
- half-life ([2]; both sexes, cynomolgus monkey, serum, po, all groups and time points, read-out: half-life (T1/2)): 5 to 7 h
- tolerability ([2]; oral 8, 12, and 16 mg/kg/day for 5 consecutive days, slight body weight loss, changes in hematology, urinalysis, clinical chemistry): tolerated
- Caspase 3/7, 8 [3]: −
- Caspase 3/7, 8 [4]: +
- Caspase 3/7, 8 [5]: +
- Caspase 3/7, 8 [6]: +
- Caspase 3/7, 8 [7]: +
- Caspase 3/7, 8 [8]: +
- Caspase 3/7, 8 [9]: +
- Caspase 3/7 activation [10]: +
- Caspase 3/7, 8 [11]: −
- Caspase 3/7, 8 [12]: +
- Caspase 3/7, 8 [13]: +
- Caspase 3/7, 8 [14]: −
- Caspase 3/7, 8 [15]: −

From patent US12611406B2, “Oxopiperazine derivatives for the treatment of cancer” (Inthera Bioscience AG, priority 2020, dated 2026)
